Assay results taken from the supplement of paper PMC12463676, “Small-molecule dissolution of stress granules by redox modulation benefits ALS models” (Nature Chemical Biology, 2025).

What was measured:
lipoamide = compound: NC(=O)CCCCC1CCSS1 [lipoamide]; experiment: thermal stability z-score vs DMSO; higher = more thermally stabilized by treatment; settings: HeLa, lipoamide concentration 100 µM
Method: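 Cellular thermal proteome profiling in HeLa cells. Cells were treated with 100 µM lipoamide for 1 h, with or without 1 mM arsenate for a further 1 h, then heated to ten temperatures (37-66.3 °C), and soluble protein was quantified by TMT mass spectrometry relative to 0.1% DMSO controls. The thermal stability score (sum of log2 fold changes minus the abundance score) was transformed to a z-score; mean of n = 3 experiments.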

potassium arsenate = compound: O=[As]([O-])(O)O.[K+] [potassium arsenate]; experiment: as above; settings: HeLa; arsenate concentration 1 mM
Method: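 Cellular thermal proteome profiling in HeLa cells treated with 1 mM arsenate for 1 h (DMSO pretreatment), heated to ten temperatures (37-66.3 °C). Soluble protein was quantified by TMT mass spectrometry relative to DMSO controls; the thermal stability score was transformed to a z-score; mean of n = 3 experiments.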

[1] = arsenate co-treatment: 1 mM arsenate 1 h
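Note: each temperature applied for 3 min, abundance score taken as mean log2 fold change at the two lowest temperatures, z-score obtained by mean subtraction and division by SD.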

RPRD1A (UniProt Q96P16)
UniProt Q96P16, sequence (Q96P16 whole entry): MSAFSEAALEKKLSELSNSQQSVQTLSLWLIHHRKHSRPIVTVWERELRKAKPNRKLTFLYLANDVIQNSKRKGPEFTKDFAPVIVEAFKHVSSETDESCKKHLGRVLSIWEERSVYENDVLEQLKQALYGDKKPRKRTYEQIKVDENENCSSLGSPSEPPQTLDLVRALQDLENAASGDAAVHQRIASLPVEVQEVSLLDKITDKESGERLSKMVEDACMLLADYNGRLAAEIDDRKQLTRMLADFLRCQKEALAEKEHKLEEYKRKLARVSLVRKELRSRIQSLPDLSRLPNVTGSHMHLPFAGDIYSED
thermal stability z-score (lipoamide; [1]): -0.123 | thermal stability z-score (lipoamide; arsenate co-treatment: none): -0.0762 | thermal stability z-score (potassium arsenate): -0.037

RPRD1B (UniProt Q9NQG5)
UniProt Q9NQG5, sequence (Q9NQG5 whole entry): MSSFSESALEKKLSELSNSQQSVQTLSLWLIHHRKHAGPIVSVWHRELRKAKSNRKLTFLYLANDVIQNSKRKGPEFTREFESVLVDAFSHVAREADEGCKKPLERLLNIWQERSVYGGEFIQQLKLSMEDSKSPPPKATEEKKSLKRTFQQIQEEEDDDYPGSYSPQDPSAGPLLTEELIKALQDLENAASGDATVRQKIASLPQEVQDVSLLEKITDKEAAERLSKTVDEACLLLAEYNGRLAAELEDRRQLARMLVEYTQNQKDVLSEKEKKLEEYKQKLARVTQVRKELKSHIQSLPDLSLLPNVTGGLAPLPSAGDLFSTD
thermal stability z-score (lipoamide; [1]): 0.793 | thermal stability z-score (lipoamide; arsenate co-treatment: none): 0.977 | thermal stability z-score (potassium arsenate): 0.808

RPRD2 (UniProt Q5VT52)
thermal stability z-score (lipoamide; [1]): 1.99 | thermal stability z-score (lipoamide; arsenate co-treatment: none): 1.64 | thermal stability z-score (potassium arsenate): 0.719

RPS2 (UniProt P15880)
thermal stability z-score (lipoamide; [1]): 0.307 | thermal stability z-score (lipoamide; arsenate co-treatment: none): 0.259 | thermal stability z-score (potassium arsenate): -0.532

RPS3 (UniProt P23396)
thermal stability z-score (lipoamide; [1]): 0.354 | thermal stability z-score (lipoamide; arsenate co-treatment: none): 0.207 | thermal stability z-score (potassium arsenate): -0.627

RPS3A (UniProt P61247)
thermal stability z-score (lipoamide; [1]): 0.23 | thermal stability z-score (lipoamide; arsenate co-treatment: none): 0.114 | thermal stability z-score (potassium arsenate): -0.818

RPS4X (UniProt P62701)
thermal stability z-score (lipoamide; [1]): 0.35 | thermal stability z-score (lipoamide; arsenate co-treatment: none): 0.0222 | thermal stability z-score (potassium arsenate): -0.997

RPS5 (UniProt P46782)
thermal stability z-score (lipoamide; [1]): 0.607 | thermal stability z-score (lipoamide; arsenate co-treatment: none): 0.458 | thermal stability z-score (potassium arsenate): -0.546

RPS6 (UniProt P62753)
thermal stability z-score (lipoamide; [1]): 1.06 | thermal stability z-score (lipoamide; arsenate co-treatment: none): 0.834 | thermal stability z-score (potassium arsenate): -0.404

RPS6KA1 (UniProt Q15418)
thermal stability z-score (lipoamide; [1]): -0.0567 | thermal stability z-score (lipoamide; arsenate co-treatment: none): -0.413 | thermal stability z-score (potassium arsenate): 0.0783

RPS6KA3 (UniProt P51812)
UniProt P51812, sequence (P51812 whole entry): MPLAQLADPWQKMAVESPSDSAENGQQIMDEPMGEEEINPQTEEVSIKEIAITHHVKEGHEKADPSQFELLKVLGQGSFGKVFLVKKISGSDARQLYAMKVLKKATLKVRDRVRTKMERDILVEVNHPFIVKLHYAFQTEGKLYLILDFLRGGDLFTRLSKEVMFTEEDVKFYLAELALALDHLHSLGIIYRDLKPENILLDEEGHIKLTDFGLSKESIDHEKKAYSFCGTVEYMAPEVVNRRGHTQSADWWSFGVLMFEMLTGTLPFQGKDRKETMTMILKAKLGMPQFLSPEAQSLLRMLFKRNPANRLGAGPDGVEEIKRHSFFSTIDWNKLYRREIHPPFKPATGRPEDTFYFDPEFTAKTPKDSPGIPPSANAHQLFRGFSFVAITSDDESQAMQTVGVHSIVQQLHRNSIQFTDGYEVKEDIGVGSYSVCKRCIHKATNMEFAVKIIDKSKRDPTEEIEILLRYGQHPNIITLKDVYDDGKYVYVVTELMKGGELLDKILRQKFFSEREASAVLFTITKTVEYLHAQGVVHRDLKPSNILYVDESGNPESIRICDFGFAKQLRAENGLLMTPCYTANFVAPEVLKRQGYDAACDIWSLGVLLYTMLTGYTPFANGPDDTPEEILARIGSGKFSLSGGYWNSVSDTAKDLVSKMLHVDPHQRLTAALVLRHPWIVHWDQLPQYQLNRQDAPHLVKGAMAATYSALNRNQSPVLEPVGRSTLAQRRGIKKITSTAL
thermal stability z-score (lipoamide; [1]): -0.607 | thermal stability z-score (lipoamide; arsenate co-treatment: none): -0.345 | thermal stability z-score (potassium arsenate): 0.388

RPS6KA4 (UniProt O75676)
UniProt O75676, sequence (O75676 whole entry, looked up): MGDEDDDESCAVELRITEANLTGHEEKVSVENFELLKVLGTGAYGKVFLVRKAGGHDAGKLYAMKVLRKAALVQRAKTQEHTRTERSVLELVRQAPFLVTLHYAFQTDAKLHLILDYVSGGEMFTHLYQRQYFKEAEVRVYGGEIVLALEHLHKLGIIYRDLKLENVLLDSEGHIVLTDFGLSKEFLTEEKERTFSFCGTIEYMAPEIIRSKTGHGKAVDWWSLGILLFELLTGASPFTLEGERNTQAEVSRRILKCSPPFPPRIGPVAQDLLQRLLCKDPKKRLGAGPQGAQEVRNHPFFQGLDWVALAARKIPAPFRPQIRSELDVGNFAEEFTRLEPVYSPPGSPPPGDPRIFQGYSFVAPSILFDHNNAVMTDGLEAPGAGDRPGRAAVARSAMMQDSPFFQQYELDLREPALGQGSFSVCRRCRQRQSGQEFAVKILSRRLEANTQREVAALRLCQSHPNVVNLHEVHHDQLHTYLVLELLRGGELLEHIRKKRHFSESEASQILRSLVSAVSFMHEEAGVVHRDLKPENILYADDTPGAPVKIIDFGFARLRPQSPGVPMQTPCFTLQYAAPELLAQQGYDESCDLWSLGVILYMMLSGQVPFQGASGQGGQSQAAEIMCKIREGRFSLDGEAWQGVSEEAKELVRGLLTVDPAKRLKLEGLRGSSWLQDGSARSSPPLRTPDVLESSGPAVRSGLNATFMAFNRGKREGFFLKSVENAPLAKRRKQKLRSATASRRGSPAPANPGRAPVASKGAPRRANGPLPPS
thermal stability z-score (lipoamide; [1]): -0.327 | thermal stability z-score (lipoamide; arsenate co-treatment: none): -0.0905 | thermal stability z-score (potassium arsenate): 0.0157

RPS6KB1 (UniProt P23443)
UniProt P23443, sequence (P23443 whole entry, looked up): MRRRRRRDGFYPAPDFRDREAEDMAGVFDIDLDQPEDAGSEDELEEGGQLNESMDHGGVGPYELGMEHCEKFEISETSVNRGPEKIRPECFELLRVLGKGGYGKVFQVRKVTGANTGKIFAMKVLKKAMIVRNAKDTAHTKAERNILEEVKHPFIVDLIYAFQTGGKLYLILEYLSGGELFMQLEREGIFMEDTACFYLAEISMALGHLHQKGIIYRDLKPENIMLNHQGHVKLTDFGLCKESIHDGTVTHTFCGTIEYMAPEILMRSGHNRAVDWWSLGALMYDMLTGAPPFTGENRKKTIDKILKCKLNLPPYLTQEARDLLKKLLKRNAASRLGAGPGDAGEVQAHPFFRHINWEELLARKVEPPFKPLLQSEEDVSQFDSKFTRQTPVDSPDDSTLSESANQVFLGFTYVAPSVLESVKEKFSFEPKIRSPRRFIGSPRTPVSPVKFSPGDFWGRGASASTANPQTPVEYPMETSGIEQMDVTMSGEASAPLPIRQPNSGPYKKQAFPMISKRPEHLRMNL
thermal stability z-score (lipoamide; [1]): -0.0619 | thermal stability z-score (lipoamide; arsenate co-treatment: none): 0.679 | thermal stability z-score (potassium arsenate): 0.138

RPS6KB2 (UniProt Q9UBS0)
UniProt Q9UBS0, sequence (Q9UBS0 whole entry): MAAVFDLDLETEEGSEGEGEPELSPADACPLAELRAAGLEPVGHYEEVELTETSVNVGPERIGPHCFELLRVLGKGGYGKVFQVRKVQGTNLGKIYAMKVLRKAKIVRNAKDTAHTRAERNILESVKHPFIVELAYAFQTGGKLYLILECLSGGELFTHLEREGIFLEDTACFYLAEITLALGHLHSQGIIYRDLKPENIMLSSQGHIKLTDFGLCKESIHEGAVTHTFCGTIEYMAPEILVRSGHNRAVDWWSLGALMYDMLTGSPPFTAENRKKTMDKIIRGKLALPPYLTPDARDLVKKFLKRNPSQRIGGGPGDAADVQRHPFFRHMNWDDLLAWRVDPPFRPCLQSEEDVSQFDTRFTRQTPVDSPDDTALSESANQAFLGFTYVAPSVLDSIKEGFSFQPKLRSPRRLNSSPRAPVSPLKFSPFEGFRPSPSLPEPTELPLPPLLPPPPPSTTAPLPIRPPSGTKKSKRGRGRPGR
thermal stability z-score (lipoamide; [1]): 0.0955 | thermal stability z-score (lipoamide; arsenate co-treatment: none): 0.0989 | thermal stability z-score (potassium arsenate): -0.0668

RPS6KC1 (UniProt Q96S38)
UniProt Q96S38, sequence (Q96S38 whole entry): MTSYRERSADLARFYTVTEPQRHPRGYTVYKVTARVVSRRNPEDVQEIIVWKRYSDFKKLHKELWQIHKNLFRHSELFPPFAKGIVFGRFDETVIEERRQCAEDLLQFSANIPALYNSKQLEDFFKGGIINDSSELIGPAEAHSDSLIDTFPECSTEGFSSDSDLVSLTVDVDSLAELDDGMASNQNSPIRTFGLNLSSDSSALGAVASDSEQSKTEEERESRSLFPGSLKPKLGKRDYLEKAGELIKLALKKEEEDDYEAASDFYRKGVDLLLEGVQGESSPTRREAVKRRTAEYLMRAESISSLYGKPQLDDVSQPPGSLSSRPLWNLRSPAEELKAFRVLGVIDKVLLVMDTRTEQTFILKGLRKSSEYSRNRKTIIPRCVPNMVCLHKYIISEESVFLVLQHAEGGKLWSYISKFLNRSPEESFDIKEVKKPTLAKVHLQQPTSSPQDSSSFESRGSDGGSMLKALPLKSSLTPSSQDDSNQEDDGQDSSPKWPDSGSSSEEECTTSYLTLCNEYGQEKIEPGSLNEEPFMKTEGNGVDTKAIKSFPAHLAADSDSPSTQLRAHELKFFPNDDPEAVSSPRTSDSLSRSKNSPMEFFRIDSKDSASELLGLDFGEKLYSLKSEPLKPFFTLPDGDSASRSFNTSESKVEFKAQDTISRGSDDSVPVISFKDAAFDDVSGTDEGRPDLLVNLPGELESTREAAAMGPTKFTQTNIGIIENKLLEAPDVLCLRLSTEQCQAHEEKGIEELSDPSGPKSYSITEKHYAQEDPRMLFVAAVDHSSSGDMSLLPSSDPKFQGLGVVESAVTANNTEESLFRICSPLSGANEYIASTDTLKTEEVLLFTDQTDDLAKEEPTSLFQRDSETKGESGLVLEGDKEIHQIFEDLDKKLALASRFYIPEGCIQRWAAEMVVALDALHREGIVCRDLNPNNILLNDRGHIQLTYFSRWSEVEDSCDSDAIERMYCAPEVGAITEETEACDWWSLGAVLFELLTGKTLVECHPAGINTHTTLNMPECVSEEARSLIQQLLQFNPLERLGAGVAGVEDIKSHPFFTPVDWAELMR
thermal stability z-score (lipoamide; [1]): -0.161 | thermal stability z-score (lipoamide; arsenate co-treatment: none): -0.151 | thermal stability z-score (potassium arsenate): -0.393

RPS7 (UniProt P62081)
thermal stability z-score (lipoamide; [1]): 0.514 | thermal stability z-score (lipoamide; arsenate co-treatment: none): 0.322 | thermal stability z-score (potassium arsenate): -0.493

RPS8 (UniProt P62241)
thermal stability z-score (lipoamide; [1]): 0.378 | thermal stability z-score (lipoamide; arsenate co-treatment: none): 0.0867 | thermal stability z-score (potassium arsenate): -0.848

RPS9 (UniProt P46781)
thermal stability z-score (lipoamide; [1]): 0.28 | thermal stability z-score (lipoamide; arsenate co-treatment: none): 0.125 | thermal stability z-score (potassium arsenate): -1.03

RPS10 (UniProt P46783)
thermal stability z-score (lipoamide; [1]): 0.895 | thermal stability z-score (lipoamide; arsenate co-treatment: none): 0.406 | thermal stability z-score (potassium arsenate): -0.422

RPS11 (UniProt P62280)
thermal stability z-score (lipoamide; [1]): 0.621 | thermal stability z-score (lipoamide; arsenate co-treatment: none): 0.352 | thermal stability z-score (potassium arsenate): -1.11

RPS12 (UniProt P25398)
thermal stability z-score (lipoamide; [1]): 0.613 | thermal stability z-score (lipoamide; arsenate co-treatment: none): 0.884 | thermal stability z-score (potassium arsenate): -0.949

RPS13 (UniProt P62277)
thermal stability z-score (lipoamide; [1]): 0.784 | thermal stability z-score (lipoamide; arsenate co-treatment: none): 0.463 | thermal stability z-score (potassium arsenate): -1.11

RPS14 (UniProt P62263)
thermal stability z-score (lipoamide; [1]): 0.641 | thermal stability z-score (lipoamide; arsenate co-treatment: none): 0.21 | thermal stability z-score (potassium arsenate): -0.926

RPS15 (UniProt P62841)
thermal stability z-score (lipoamide; [1]): 0.148 | thermal stability z-score (lipoamide; arsenate co-treatment: none): 0.282 | thermal stability z-score (potassium arsenate): -0.957

RPS15A (UniProt P62244)
thermal stability z-score (lipoamide; [1]): 0.437 | thermal stability z-score (lipoamide; arsenate co-treatment: none): 0.494 | thermal stability z-score (potassium arsenate): -0.776

RPS16 (UniProt P62249)
thermal stability z-score (lipoamide; [1]): 1.04 | thermal stability z-score (lipoamide; arsenate co-treatment: none): 0.549 | thermal stability z-score (potassium arsenate): -0.329

RPS17 (UniProt P08708)
thermal stability z-score (lipoamide; [1]): 0.31 | thermal stability z-score (lipoamide; arsenate co-treatment: none): -0.0463 | thermal stability z-score (potassium arsenate): -0.614

RPS18 (UniProt P62269)
thermal stability z-score (lipoamide; [1]): 0.389 | thermal stability z-score (lipoamide; arsenate co-treatment: none): 0.214 | thermal stability z-score (potassium arsenate): -0.81

RPS19 (UniProt P39019)
thermal stability z-score (lipoamide; [1]): 0.104 | thermal stability z-score (lipoamide; arsenate co-treatment: none): 0.15 | thermal stability z-score (potassium arsenate): -1.03

RPS19BP1 (UniProt Q86WX3)
UniProt Q86WX3, sequence (Q86WX3 whole entry): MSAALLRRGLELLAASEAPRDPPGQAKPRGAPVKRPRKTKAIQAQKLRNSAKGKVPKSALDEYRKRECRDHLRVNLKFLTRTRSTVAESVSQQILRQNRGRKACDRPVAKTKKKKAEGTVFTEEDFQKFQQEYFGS
thermal stability z-score (lipoamide; [1]): -0.305 | thermal stability z-score (lipoamide; arsenate co-treatment: none): -0.278 | thermal stability z-score (potassium arsenate): -0.522
